Assays:
Assay type in all cases: in vivo
blood brain barrier [1] = experiment: Evan's blue leakage into brain tissue following injury; conditions: dose-dependent, FIG. 1
Text: We chose to use the compound N-acetyl-L-tryptophan (NAT).

blood brain barrier [2] = experiment: Blood brain barrier permeability induced by injection of tPA in naïve (uninjured) animal; conditions: FIG. 2
[3] = tested on: rats subject to ischaemia/reperfusion injury; experiment: Oedema after reversible stroke (intraluminal thread model of middle cerebral artery occlusion) and reperfusion; conditions: 2 h occlusion, 10^−5 mol/kg intravenous 2 h after reperfusion, FIG. 3
Procedure: To this end, anaesthetised rats were subject to 2 hours reversible stroke using the intraluminal thread model of middle cerebral artery occlusion. At 2 hours, reperfusion was initiated by withdrawing the thread and following a further 2 hours, N-acetyl-L-tryptophan (10^−5 mol/kg) was administered by intravenous injection. There was a significant increase in oedema at 24 h following ischaemia/reperfusion injury.

[4] = tested on: rats subject to ischaemia/reperfusion injury; experiment: Rotarod test of motor function after reversible stroke and reperfusion; conditions: 2 h occlusion, over ensuing 7 days, FIG. 4
Procedure: Anaesthetised rats were subject to 2 hours reversible stroke using the intraluminal thread model of middle cerebral artery occlusion. At 2 hours, reperfusion was initiated by withdrawing the thread and following a further 2 hours, N-acetyl-L-tryptophan (10^-5 mol/kg) or […],060 (1 mg/kg) was administered by intravenous injection.

[5] = tested on: IL-1β, IL-6 and TNFα mRNA; experiment: RT-PCR of inflammatory cytokine mRNA in brain tissue after hypoxia and hypotension; conditions: rats, 10^−5 mol/kg intravenous after hypoxia and hypotension, 6 hours after injury, normalised to rpL32
Procedure: In order to induce the inflammatory response associated with reperfusion, anaesthetised rats were subject to 15 minutes of hypoxia (PAO2 30-40 mmHg) and hypotension (MABP 40 mmHg), before blood oxygen level and blood pressure were restored to normal levels. In order to examine the effects of a substance P antagonist on the inflammatory response, N-acetyl-L-tryptophan was administered intravenously at a dose of 10^−5 mol/kg after hypoxia and hypotension. The expression of mRNA for the inflammatory cytokines IL-1β, IL-6 and TNFα in brain tissue was determined by reverse transcription followed by a polymerase chain reaction (RT-PCR). mRNA levels were normalised with respect to expression of rpL32. Brain tissue samples were collected at 6 hours after injury. Levels of expression of mRNA for the inflammatory cytokines were compared between non-ischaemic animals (control), ischaemic animals administered drug vehicle alone (ischaemia), and ischaemic animals administered a substance P receptor antagonist (NK1). mRNA expression was determined for IL-1β (FIG. 5a), IL-6 (FIG. 5b) and TNFα (FIG. 5c).

IL-6 = experiment: Serum IL-6 by ELISA after hypoxia and hypotension; conditions: rats; 10^−5 mol/kg intravenous after hypoxia and hypotension; blood at 6 hours after the insult; FIG. 6
Procedure: In order to induce the inflammatory response associated with reperfusion, anaesthetised rats were subject to 15 minutes of hypoxia (PAO2 30-40 mmHg) and hypotension (MABP 40 mmHg), before blood oxygen level and blood pressure were restored to normal levels. In addition, serum interleukin 6 levels were also determined. Blood samples were collected at 6 hours after the insult. Changes in serum IL-6 levels were quantified using an enzyme-linked immunosorbent assay (ELISA). Serum levels of IL-6 were compared between animals that were not subject to ischaemia (control), animals subject to ischaemia followed by administration of drug vehicle alone (ischaemia), and animals subject to ischaemia followed by administration of a substance P receptor antagonist (NK1) (FIG. 6).

CC(=O)N[C@@H](Cc1c[nH]c2ccccc12)C(=O)O [N-acetyl-L-tryptophan]
leakage of Evan's blue dye into the brain tissue (blood brain barrier closure) (blood brain barrier [1]): reduced leakage of Evan's blue dye into the brain tissue
permeability of the blood brain barrier induced by tPA (blood brain barrier [2]; NAT 10^−5 mol/kg, tPA (Actilyse) injected to naïve (uninjured) animal): prevented the increased permeability of the blood brain barrier
oedema at 24 h following ischaemia/reperfusion injury [3]: significantly attenuated
functional outcome, rotarod test of motor function ([4]; 10^−5 mol/kg intravenous 2 h after reperfusion): profound improvement in functional outcome
expression of IL-1β mRNA in brain tissue with respect to non-ischaemic animals ([5]; FIG. 5a): no significant differences
expression of IL-6 mRNA in brain tissue with respect to non-ischaemic animals ([5]; FIG. 5b): no significant differences
expression of TNFα mRNA in brain tissue with respect to non-ischaemic animals ([5]; FIG. 5c): no significant differences
increase in serum IL-6 levels (IL-6): this response was not observed

FC(F)(F)c1cc(CO[C@H]2CCCN[C@H]2c2ccccc2)cc(C(F)(F)F)c1 [L733,060]
functional outcome, rotarod test of motor function ([4]; 1 mg/kg intravenous 2 h after reperfusion): improved functional outcome

tPA: tissue plasminogen activator, a thrombolytic agent
permeability of the blood brain barrier after tPA alone (blood brain barrier [2]; tPA (Actilyse) alone to naïve (uninjured) animal): increased permeability of the blood brain barrier

From patent publication US20100305183A1, “METHOD AND COMPOSITION FOR REDUCING REPERFUSION INJURY” (Adelaide Research & Innovation Pty Ltd, priority 2006, published 2010)
